According to patent US9018438B2, “Screening method for anticancer drugs” (Kyoto University, priority 2010, dated 2015):
Structures can show the parent of a compound that is named as a salt. Where two headings read alike, the source gives them in different places.

Tests used:
Reck gene promoter [1] = assay: SEAP assay in YM3 cells (Reck gene promoter-reporter system); assay type: cell-based, mouse
Protocol: A 4.1-kb upstream region of a mouse Reck gene (Gene ID: 53614, Chromosome 4—NC—000070.5 43884251-43888453) was inserted into a pSEAP2-Basic vector (Clontech) to give a pSEAP-RP4.1 plasmid. […] Biochem Biophys Res Commun 1999; 264: 668-675.). […] TF323-C3 cells can be distributed from one of the inventors Makoto Noda.
YM3 cells were seeded onto 96-well plates at 1×10^4 cells in 100 μl per well and incubation was performed for 5 hours to allow the cells to settle. A compound solution (500 μM, 1 μl) was added to the medium. The employed test compounds were those in the chemical library Prestwick Chemical Library (Prestwick Chemical, Illkirch, France), which is composed of 880 structurally diverse known bioactive compounds, dissolved in nano-pure grade dimethyl sulfoxide (DMSO; Wako). […] A vehicle (DMSO, 1 μl) alone as a negative control and hypothemycin (HPM, 1 mg/ml) as a positive control were added to two wells per plate. Each sample was tested on two different plates (duplicate samples).
After incubation for 48 hours, a portion (10 μl) of the culture supernatant was sampled, incubated at 65° C. (heat treatment) for 30 minutes, and then subjected to the SEAP assay using Great EscAPe™ SEAP Chemiluminescence Detection Kit (Takara Bio). The remaining medium and the cells were subjected to the cell-counting assay using SF reagent. That is, SF reagent (Nacalai) (10 μl per well) was added to the medium, the plates were incubated for 3 hours in a CO2 incubator, and the absorbance at 450 nm (A450) was measured to obtain relative cell numbers. For the SEAP activity data, “SEAP measured value/A450 value” was defined as “SEAP activity per cell”, and the value obtained by dividing “SEAP activity per cell” of each compound by “SEAP activity per cell” of the negative control was defined as “relative SEAP activity”. The mean “relative SEAP activity” of the duplicate samples and the standard error thereof were determined. For the cell number data, the value obtained by dividing the SF measured value of each compound by the SF measured value of the negative control was defined as “relative cell number”, and the mean value of the duplicate samples and the standard error thereof were determined. Samples with a large standard error were tested again. In the experiment, duplicate samples were prepared each in a regular liquid medium and in a liquid medium containing Dox (2 μg/ml), and four mean values (the relative cell number and the relative SEAP activity in the Ras-ON state and the relative cell number and the relative SEAP activity in the Ras-OFF state) were obtained (see FIG. 3).

Reck gene promoter [2] = assay: as above; assay type: cell-based, mouse; conditions: determined by dose-response assays (0.0617, 0.185, 0.556, 1.67, 5.00 μM) using YM3 cells
RM72 cells = assay type: in vivo; conditions: mouse, in vivo
Protocol: RM72 cells (3×10^6 cells) suspended in 0.1 ml of PBS were subcutaneously injected into the right posterior flank of Balb/c nude mice (6 weeks old, male, Charles River). […]. After 14-day treatment, the mice were anesthetized and their bioluminescence was recorded by the method described below. After the whole-body recording of the bioluminescence, the lung was resected, washed with PBS (−), and subjected to bioluminescence recording. The tumor size (length×width×height) was measured once a week. Statistical significance was assessed by Student's t-test.
Mice under anesthesia were intraperitoneally injected with 75 mg/kg of d-luciferin dissolved in PBS (−). Bioluminescence images were acquired with IVIS ImagingSystem (Xenogen) at 5 minutes after the injection (Wang S, El-Deiry W S. Requirement of p53 targets in chemosensitization of colonic carcinoma to death ligand therapy. Proc Natl Acad Sci USA 2003; 100: 15095-15100; Minn A J, Kang Y, Serganova I, Gupta G P, Giri D D, Doubrovin M, Ponomarev V, Gerald W L, Blasberg R, Massague J. Distinct organ-specific metastatic potential of individual breast cancer cells and primary tumors. J Clin Invest 2005; 115: 44-55). The photons emitted from the whole bodies or the isolated organs were collected for a period of 60 seconds and integrated. The images were analyzed using Living Image software (Xenogen).
The anti-tumorigenic and anti-metastatic activities of Pyt, Hr, Gra and Lyc were investigated with the same protocol as in Example 9. The experiment was conducted in two batches: Experiment 1 for three groups of a Pyt group, a Hr group and a vehicle group and Experiment 2 for three groups of a Gra group, a Lyc group and a vehicle group. The doses of the test compounds were set at two different quantities considered to be appropriate based on literature (see Tables 3 and 4).

[3] = in the presence of Dox (HRAS12V-off)
[4] = relative SEAP activity at optimal conc., YM3 cells, regular medium (Ras-ON)

Row | Molecule | Activity in Dox (Reck gene promoter [1]; [3]) | Induction (fold) (Reck gene promoter [1]; [4]) | further results
1 | CCN(CC)CCNc1ccc(CO)c2sc3ccccc3c(=O)c12 [Hycanthone] | + (more than 1.9-fold) | 2.02 | 
2 | CN(C)CCCN1c2ccccc2Sc2ccc(C(F)(F)F)cc21 [Triflupromazine hydrochloride] |  |  | Activity in Dox (Reck gene promoter [1]): − (key: +: more than 1.9-fold; ±: between 1.9 and 1.5-fold; −: less than 1.5-fold)
3 | COc1cc([C@@H]2c3cc4c(cc3[C@@H](O[C@@H]3O[C@@H]5CO[C@@H](C)O[C@H]5[C@H](O)[C@H]3O)[C@H]3COC(=O)[C@H]23)OCO4)cc(OC)c1O [Etoposide] | + (more than 1.9-fold) | 1.99 | 
4 | CCCSc1ccc2nc(NC(=O)OC)[nH]c2c1 [Albendazole] |  |  | Activity in Dox (Reck gene promoter [1]): ± (key: +: more than 1.9-fold; ±: between 1.9 and 1.5-fold; −: less than 1.5-fold); Induction (fold) (Reck gene promoter [1]): 2.89 fold
5 | Meclocycline sulfosalicylate | − (less than 1.5-fold) | 2.59 | Optimal conc. (Reck gene promoter [2]): 0.0617 µM
6 | [O-][n+]1ccccc1S [Pyrithione sodium salt] |  |  | Activity in Dox (Reck gene promoter [1]): + (key: +: more than 1.9-fold; ±: between 1.9 and 1.5-fold; −: less than 1.5-fold); Induction (fold) (Reck gene promoter [1]): 17.5 fold; Lung metastasis Mean (RM72 cells; 15 mg/kg/day): 11.6; Tumor Mean (RM72 cells; 15 mg/kg/day): 52.2; Lung metastasis Mean (RM72 cells; 50 mg/kg/day): 84.2; Tumor Mean (RM72 cells; 50 mg/kg/day): 74.4
7 | CC[C@H]1CN2CCc3cc(OC)c(OC)cc3[C@@H]2C[C@@H]1C[C@H]1NCCc2cc(OC)c(OC)cc21 [Emetine dihydrochloride] | − (less than 1.5-fold) | 3.79 | 
8 | CCOC(=O)NC1=C(N2CC2)C(=O)C(NC(=O)OCC)=C(N2CC2)C1=O [Diaziquone] | ± (between 1.9 and 1.5-fold) | 3.54 | 
9 | O=C1c2c(O)ccc(O)c2C(=O)c2c(NCCNCCO)ccc(NCCNCCO)c21 [Mitoxantrone dihydrochloride] | + (more than 1.9-fold) | 3.60 | 
10 | CC[C@H]1CN2CCc3cc(OC)c(OC)cc3[C@@H]2C[C@@H]1C[C@H]1NCCc2cc(O)c(OC)cc21.Cl.Cl.O.O.O.O.O.O.O [Cephaeline dihydrochloride heptahydrate] | + (more than 1.9-fold) | 5.61 | Optimal conc. (Reck gene promoter [1]): 5.00 µM
11 | Nc1nc(N)c2nc(-c3ccccc3)c(N)nc2n1 [Triamterene] | − (less than 1.5-fold) | 2.25 | 
12 | CC[C@@]1(O)C(=O)OCc2c1cc1n(c2=O)Cc2cc3ccccc3nc2-1 [Camptothecine (S, +)] | + (more than 1.9-fold) | 7.71 | Optimal conc. (Reck gene promoter [1]): 5.00 µM
13 | C1CCC(C(CC2CCCCN2)C2CCCCC2)CC1 (stereo not drawn) [Perhexiline maleate] | + (more than 1.9-fold) | 2.28 | 
14 | COc1cc([C@@H]2c3cc4c(cc3[C@H](O)[C@H]3COC(=O)[C@H]23)OCO4)cc(OC)c1OC [Podophyllotoxin] | ± (between 1.9 and 1.5-fold) | 2.48 | 
15 | CN(Cc1cnc2nc(N)nc(N)c2n1)c1ccc(C(=O)N[C@@H](CCC(=O)O)C(=O)O)cc1 [Methotrexate] | ± (between 1.9 and 1.5-fold) | 3.42 | 
